Source: the NIST ThermoML archive (doi:10.1016/j.jct.2018.08.013)
“And” between values parts separate entries of the source, which are not always exact repeats. Identical values can stand only once.

Key:
[1] = xn = mol fraction of the nth substance listed; settings: 298 K; 100 kPa; Crystal of intercomponent compound 1; X-ray diffraction; x2 = 0.486
[2] = specific heat capacity at constant pressure; xn = mol fraction of the nth substance listed; settings: 100 kPa, Crystal of intercomponent compound 1, relaxation calorimetry, x2 = 0.486

[Te] [tellurium] + [Ga]
Settings | mass density [kg/m3]
[1] | 5448

[2]
Settings | specific heat capacity
14.14 K | 12.49 J/K/kg
14.15 K | 12.53 J/K/kg
16.16 K | 17.22 J/K/kg
16.18 K | 17.24 J/K/kg
18.17 K | 22.39 J/K/kg and 22.38 J/K/kg
18.18 K | 22.43 J/K/kg
20.18 K | 27.78 J/K/kg
20.19 K | 27.77 J/K/kg
20.2 K | 27.79 J/K/kg
22.21 K | 33.2 J/K/kg
22.22 K | 33.22 J/K/kg
24.22 K | 38.74 J/K/kg
24.23 K | 38.79 J/K/kg
26.24 K | 44.36 J/K/kg and 44.33 J/K/kg and 44.32 J/K/kg
28.25 K | 49.69 J/K/kg
28.26 K | 49.67 J/K/kg
30.27 K | 54.94 J/K/kg
30.29 K | 54.99 J/K/kg
35.31 K | 68.01 J/K/kg
35.32 K | 68.01 J/K/kg
35.33 K | 68.06 J/K/kg
40.35 K | 80.38 J/K/kg
40.36 K | 80.53 J/K/kg and 80.38 J/K/kg
45.39 K | 92.13 J/K/kg
45.41 K | 91.88 J/K/kg
50.41 K | 103.44 J/K/kg
50.43 K | 103.49 J/K/kg
50.46 K | 103.13 J/K/kg
55.45 K | 113.77 J/K/kg
55.46 K | 113.98 J/K/kg
55.5 K | 113.47 J/K/kg
60.48 K | 123.56 J/K/kg
60.5 K | 123.56 J/K/kg
60.52 K | 123.05 J/K/kg
65.51 K | 133.13 J/K/kg
65.54 K | 132.63 J/K/kg
65.55 K | 133.08 J/K/kg
70.55 K | 141.95 J/K/kg
70.56 K | 141.34 J/K/kg
70.6 K | 141.7 J/K/kg
75.58 K | 149.91 J/K/kg
75.59 K | 149.2 J/K/kg
75.64 K | 149.81 J/K/kg
80.61 K | 157.76 J/K/kg
80.63 K | 157.11 J/K/kg
80.67 K | 157.61 J/K/kg
85.63 K | 164.86 J/K/kg
85.64 K | 164.2 J/K/kg
85.72 K | 164.66 J/K/kg
90.68 K | 171.5 J/K/kg and 170.94 J/K/kg
90.75 K | 171.14 J/K/kg
95.71 K | 177.22 J/K/kg and 176.31 J/K/kg
95.78 K | 176.62 J/K/kg
100.78 K | 185.08 J/K/kg
100.82 K | 184.52 J/K/kg
100.86 K | 184.88 J/K/kg
105.73 K | 192.73 J/K/kg
105.87 K | 191.31 J/K/kg and 192.07 J/K/kg
113.71 K | 198.86 J/K/kg
113.79 K | 197.4 J/K/kg
113.83 K | 197.65 J/K/kg
121.68 K | 205.1 J/K/kg
121.71 K | 204.14 J/K/kg
121.77 K | 203.73 J/K/kg
129.62 K | 209.51 J/K/kg
129.64 K | 209.91 J/K/kg
129.7 K | 208.39 J/K/kg
137.55 K | 213.76 J/K/kg
137.59 K | 213.56 J/K/kg
137.61 K | 212.24 J/K/kg
145.48 K | 218.93 J/K/kg
145.53 K | 218.27 J/K/kg
145.54 K | 217.36 J/K/kg
153.41 K | 222.38 J/K/kg
153.42 K | 222.23 J/K/kg
153.44 K | 222.08 J/K/kg
161.35 K | 224.41 J/K/kg and 224.26 J/K/kg
161.36 K | 224.31 J/K/kg
169.28 K | 227.5 J/K/kg and 227.09 J/K/kg
169.3 K | 227.04 J/K/kg
177.2 K | 229.17 J/K/kg and 228.87 J/K/kg
177.22 K | 228.92 J/K/kg
185.1 K | 230.89 J/K/kg
185.14 K | 230.79 J/K/kg
185.15 K | 230.59 J/K/kg
193.03 K | 233.63 J/K/kg
193.06 K | 233.38 J/K/kg
193.08 K | 233.43 J/K/kg
200.95 K | 233.83 J/K/kg
200.99 K | 233.88 J/K/kg
201 K | 233.68 J/K/kg
201.42 K | 236.77 J/K/kg
201.44 K | 236.67 J/K/kg
201.53 K | 234.69 J/K/kg
206.43 K | 237.94 J/K/kg
206.46 K | 237.84 J/K/kg
206.54 K | 236.01 J/K/kg
208.87 K | 236.16 J/K/kg
208.91 K | 236.52 J/K/kg
208.92 K | 236.37 J/K/kg
211.46 K | 238.9 J/K/kg
211.47 K | 238.9 J/K/kg
211.55 K | 236.98 J/K/kg
216.49 K | 239.91 J/K/kg
216.55 K | 238.55 J/K/kg
216.78 K | 238.34 J/K/kg
216.82 K | 238.39 J/K/kg
216.83 K | 238.19 J/K/kg
221.51 K | 241.18 J/K/kg and 241.33 J/K/kg and 241.13 J/K/kg
221.53 K | 241.03 J/K/kg
221.59 K | 239.61 J/K/kg
224.71 K | 241.13 J/K/kg
224.75 K | 241.28 J/K/kg
224.76 K | 240.98 J/K/kg
225.58 K | 241.79 J/K/kg
225.61 K | 241.84 J/K/kg
226.54 K | 242.25 J/K/kg and 242.35 J/K/kg
226.61 K | 240.73 J/K/kg
229.65 K | 241.89 J/K/kg
229.68 K | 241.44 J/K/kg
231.54 K | 243.26 J/K/kg
231.76 K | 241.44 J/K/kg
232.62 K | 240.42 J/K/kg
232.68 K | 239.97 J/K/kg and 240.47 J/K/kg
233.72 K | 242.04 J/K/kg
233.75 K | 241.94 J/K/kg
236.76 K | 242.3 J/K/kg
237.69 K | 243.11 J/K/kg
237.73 K | 242.45 J/K/kg
240.54 K | 241.54 J/K/kg
240.6 K | 241.28 J/K/kg and 241.49 J/K/kg
